biological target: T1, Recombinant human Src (Homo sapiens, UniProt P12931); test: Src tyrosine kinase activity, poly E4Y and 32P-ATP; assay type: biochemical; details: Table 2; read-out: Src IC50 (especially good inhibitors of Src)
T1 construct: made in house; host or cells: baculovirus-insect cell system
Method: (§1) Recombinant human Src was expressed using the baculovirus-insect cell system and purified as published (Budde et al., 1993 and 2000). Recombinant Csk and the FGF receptor (FGFr) were expressed as glutathione-S-transferase fusion proteins using the pGEX expression vector and E. coli, and purified as described (Sun & Budde, 1995).
(§2) The tyrosine kinase activity of Src, Csk and FGFr was determined using poly E4Y and ^32P-ATP. Briefly, enzymes were assayed in a reaction mixture consisting of 0.15 M EPPS-NaOH (pH 8.0) with 6 mM MgCl2, 0.2 mM γ^32P-ATP (0.2-0.4 mCi/μmol), 10% glycerol, 0.1% Triton X-100, and poly E4Y. Poly E4Y is a synthetic peptide whose phosphorylation is measured in this assay by the addition of the radioactively labeled phosphate from the ATP (Budde et al., 1995). […] When ATP was varied (0, 50, 100 and 250 μM), poly E4Y was kept constant at 150 μg/ml.

T1 sequence (P12931 whole entry): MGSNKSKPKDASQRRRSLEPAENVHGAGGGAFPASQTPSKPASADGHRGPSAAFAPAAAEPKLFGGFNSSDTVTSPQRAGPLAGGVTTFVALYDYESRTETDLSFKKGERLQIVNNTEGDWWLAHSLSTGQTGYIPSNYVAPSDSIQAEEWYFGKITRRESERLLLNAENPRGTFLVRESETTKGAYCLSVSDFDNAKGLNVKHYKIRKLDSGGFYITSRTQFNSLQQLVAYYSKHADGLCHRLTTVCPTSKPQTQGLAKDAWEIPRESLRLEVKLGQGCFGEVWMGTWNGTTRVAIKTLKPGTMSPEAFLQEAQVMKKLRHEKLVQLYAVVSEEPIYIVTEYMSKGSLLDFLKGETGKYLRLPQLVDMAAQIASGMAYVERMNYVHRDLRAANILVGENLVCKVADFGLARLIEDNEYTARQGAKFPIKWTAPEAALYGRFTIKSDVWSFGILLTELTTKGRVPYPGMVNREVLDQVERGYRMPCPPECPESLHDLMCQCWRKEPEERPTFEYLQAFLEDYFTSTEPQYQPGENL

`Cc1csc2c(NN=Cc3ccccc3)ncnc12` [Compound 7, Benzaldehyde(7-methylthieno[3,2-d]pyrimidin-4-yl)hydrazone] and `Cc1c(C(O)c2cccs2)sc2c(NN=Cc3ccc(C(=O)O)cc3)ncnc12` (centres unmarked) [Compound 488, 4-Carboxybenzaldehyde(6-(1-hydroxy-1-[2-thienyl])methyl-7-methylthieno[3,2-d]pyrimidin-4-yl)hydrazone] cannot be ordered by IC50: ≤ 2000 nM for the first, ≤ 2000 nM for the second.

`Cc1c(C(O)c2cccs2)sc2c(NN=Cc3cccs3)ncnc12` (centres unmarked) [Compound 489, 2-Thiophenecarboxaldehyde(6-(1-hydroxy-1-[2-thienyl])methyl-7-methylthieno[3,2-d]pyrimidin-4-yl)hydrazone] and `COc1ccc(C=NNc2ncnc3c(C)c(C(O)c4cccs4)sc23)cc1O` (centres unmarked) [Compound 490, 3-Hydroxy-4-methoxybenzaldehyde(6-(1-hydroxy-1-[2-thienyl])methyl-7-methylthieno[3,2-d]pyrimidin-4-yl)hydrazone] cannot be ordered by IC50: ≤ 2000 nM for the first, ≤ 2000 nM for the second.

same assay, conditions: read-out: IC50 (preferred compounds for treatment of Src family-related disease)

`Cc1csc2c(NN=Cc3ccccc3)ncnc12` [Compound 7, Benzaldehyde(7-methylthieno[3,2-d]pyrimidin-4-yl)hydrazone] and `Cc1c(C(O)c2cccs2)sc2c(NN=Cc3ccc(C(=O)O)cc3)ncnc12` (centres unmarked) [Compound 488, 4-Carboxybenzaldehyde(6-(1-hydroxy-1-[2-thienyl])methyl-7-methylthieno[3,2-d]pyrimidin-4-yl)hydrazone] cannot be ordered by IC50: < 2000 nM for the first, < 2000 nM for the second.

`Cc1c(C(O)c2cccs2)sc2c(NN=Cc3cccs3)ncnc12` (centres unmarked) [Compound 489, 2-Thiophenecarboxaldehyde(6-(1-hydroxy-1-[2-thienyl])methyl-7-methylthieno[3,2-d]pyrimidin-4-yl)hydrazone] and `COc1ccc(C=NNc2ncnc3c(C)c(C(O)c4cccs4)sc23)cc1O` (centres unmarked) [Compound 490, 3-Hydroxy-4-methoxybenzaldehyde(6-(1-hydroxy-1-[2-thienyl])methyl-7-methylthieno[3,2-d]pyrimidin-4-yl)hydrazone] cannot be ordered by IC50: < 2000 nM for the first, < 2000 nM for the second.

biological target: T2, Csk (Homo sapiens, UniProt P41240); test: Csk tyrosine kinase activity, poly E4Y and 32P-ATP; assay type: biochemical; details: poly E4Y and 32P-ATP
T2 construct: GST (glutathione-S-transferase) (N); made in house; host or cells: E. coli (pGEX vector)
T2 sequence (P41240 whole entry, species assumed): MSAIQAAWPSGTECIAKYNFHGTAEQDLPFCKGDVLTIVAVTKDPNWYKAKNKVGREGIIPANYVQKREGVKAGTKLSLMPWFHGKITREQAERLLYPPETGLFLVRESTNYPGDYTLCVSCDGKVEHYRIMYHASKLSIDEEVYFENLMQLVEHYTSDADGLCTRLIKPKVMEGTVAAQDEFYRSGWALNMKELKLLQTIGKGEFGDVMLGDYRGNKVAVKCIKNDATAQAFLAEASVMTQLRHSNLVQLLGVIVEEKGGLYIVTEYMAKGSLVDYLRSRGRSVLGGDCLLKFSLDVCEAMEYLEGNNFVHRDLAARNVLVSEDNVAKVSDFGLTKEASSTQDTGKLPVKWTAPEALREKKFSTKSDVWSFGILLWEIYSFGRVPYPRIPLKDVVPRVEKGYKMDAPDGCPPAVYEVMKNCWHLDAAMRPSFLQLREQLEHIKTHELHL
Method: as §1, §2

`COc1cc(C(O)c2sc3c(NN=Cc4cccnc4)ncnc3c2C)cc(OC)c1OC` (centres unmarked) [Compound 479, 3-Pyridinecarboxaldehyde(6-(1-hydroxy-1-[3,4,5-trimethoxyphenyl])methyl-7-methylthieno[3,2-d]pyrimidin-4-yl)hydrazone] and `COc1cc(C(O)c2sc3c(NN=Cc4cccs4)ncnc3c2C)cc(OC)c1OC` (centres unmarked) [Compound 481, 2-Thiophenecarboxaldehyde(6-(1-hydroxy-1-[3,4,5-trimethoxyphenyl])methyl-7-methylthieno[3,2-d]pyrimidin-4-yl)hydrazone] cannot be ordered by IC50: > 107 µM for the first, > 106 µM for the second.

`COc1cc(C(O)c2sc3c(NN=Cc4ccc(C(=O)O)cc4)ncnc3c2C)cc(OC)c1OC` (centres unmarked) [Compound 480, 4-Carboxybenzaldehyde(6-(1-hydroxy-1-[3,4,5-trimethoxyphenyl])methyl-7-methylthieno[3,2-d]pyrimidin-4-yl)hydrazone] and `COc1ccc(C=NNc2ncnc3c(C)c(C(O)c4cc(OC)c(OC)c(OC)c4)sc23)cc1O` (centres unmarked) [Compound 482, 3-Hydroxy-4-methoxybenzaldehyde(6-(1-hydroxy-1-[3,4,5-trimethoxyphenyl])methyl-7-methylthieno[3,2-d]pyrimidin-4-yl)hydrazone] cannot be ordered by IC50: > 98.3 µM for the first, > 97.9 µM for the second.

same assay, conditions: screening assay, 50 μg/ml poly E4Y, 0.2 mM 32P-ATP

`Cc1csc2c(NN=Cc3ccc(F)cc3)ncnc12` [Compound 6, 4-Fluorobenzaldehyde(7-methylthieno[3,2-d]pyrimidin-4-yl)hydrazone] and `Cc1csc2c(NN=Cc3ccc(O)cc3)ncnc12` [Compound 10, 4-Hydroxybenzaldehyde(7-methylthieno[3,2-d]pyrimidin-4-yl)hydrazone] cannot be ordered by IC50: > 175 µM for the first, > 176 µM for the second.

`Cc1csc2c(NN=Cc3ccccc3)ncnc12` [Compound 7, Benzaldehyde(7-methylthieno[3,2-d]pyrimidin-4-yl)hydrazone] and `Cc1csc2c(NN=Cc3ccccc3Cl)ncnc12` [Compound 45, 2-Chlorobenzaldehyde(7-methylthieno[3,2-d]pyrimidin-4-yl)hydrazone] cannot be ordered by IC50: > 186 µM for the first, > 165 µM for the second.

`CC(=O)Nc1ccc(C=NNc2ncnc3c(C)csc23)cc1` [Compound 20, 4-Acetamidobenzaldehyde(7-methylthieno[3,2-d]pyrimidin-4-yl)hydrazone] and `Cc1csc2c(NN=Cc3ccc(C(=O)O)cc3)ncnc12` [Compound 28, 4-Carboxybenzaldehyde(7-methylthieno[3,2-d]pyrimidin-4-yl)hydrazone] cannot be ordered by IC50: > 154 µM for the first, > 160 µM for the second.

`Cc1csc2c(NN=CC3CCCCC3)ncnc12` [Compound 25, Cyclohexanecarboxaldehyde(7-methylthieno[3,2-d]pyrimidin-4-yl)hydrazone] and `Cc1csc2c(NN=CC3CC=CCC3)ncnc12` (centres unmarked) [Compound 181, 3-Cyclohexene-1-carboxaldehyde(7-methylthieno[3,2-a]pyrimidin-4-yl)hydrazone] cannot be ordered by IC50: > 182 µM for the first, > 184 µM for the second.

`Cc1csc2c(NN=Cc3ccccn3)ncnc12` [Compound 26, 2-Pyridinecarboxaldehyde(7-methylthieno[3,2-d]pyrimidin-4-yl)hydrazone] and `Cc1csc2c(NN=Cc3ncc[nH]3)ncnc12` [Compound 34, 1H-Imidazole-2-carboxaldehyde(7-methylthieno[3,2-d]pyrimidin-4-yl)hydrazone] cannot be ordered by IC50: > 186 µM for the first, > 194 µM for the second.

`Cc1csc2c(NN=Cc3ccoc3)ncnc12` [Compound 38, 3-Furancarboxaldehyde(7-methylthieno[3,2-d]pyrimidin-4-yl)hydrazone] and `Cc1csc2c(NN=Cc3ccc(Br)cc3)ncnc12` [Compound 56] cannot be ordered by IC50: > 194 µM for the first, > 144 µM for the second.

`Cc1csc2c(NN=Cc3nccs3)ncnc12` [Compound 40, 2-Thiazolecarboxaldehyde(7-methylthieno[3,2-d]pyrimidin-4-yl)hydrazone] and `Cc1ccsc1C=NNc1ncnc2c(C)csc12` [Compound 119, 3-Methyl-2-thiophenecarboxaldehyde(7-methylthieno[3,2-d]pyrimidin-4-yl)hydrazone] cannot be ordered by IC50: > 182 µM for the first, > 173 µM for the second.

`Cc1sc2c(NN=Cc3ccc(F)cc3)ncnc2c1C` [Compound 93, 4-Fluorobenzaldehyde(6,7-dimethylthieno[3,2-d]pyrimidin-4-yl)hydrazone] and `CSc1ccc(C=NNc2ncnc3c(C)csc23)cc1` [Compound 172, 4-(Methylthio)benzaldehyde(7-methylthieno[3,2-d]pyrimidin-4-yl)hydrazone] cannot be ordered by IC50: > 166 µM for the first, > 159 µM for the second.

`Cc1csc2c(NN=Cc3nccn3C)ncnc12` [Compound 101, 1-Methyl-1H-imidazole-2-carboxaldehyde(7-methylthieno[3,2-d]pyrimidin-4-yl)hydrazone] and `CC=NNc1ncnc2c(C)csc12` [Compound 153, Ethanal(7-methylthieno[3,2-d]pyrimidin-4-yl)hydrazone] cannot be ordered by IC50: > 184 µM for the first, > 242 µM for the second.

`CCCOc1ccc(C=NNc2ncnc3c(C)csc23)cc1` [Compound 134, 4-Propoxybenzaldehyde(7-methylthieno[3,2-d]pyrimidin-4-yl)hydrazone] and `CCCOc1cccc(C=NNc2ncnc3c(C)csc23)c1` [Compound 135, 3-Propoxybenzaldehyde(7-methylthieno[3,2-d]pyrimidin-4-yl)hydrazone] cannot be ordered by IC50: > 153 µM for the first, > 153 µM for the second.

`CCCCOc1cccc(C=NNc2ncnc3c(C)csc23)c1` [Compound 139] and `Cc1csc2c(NN=Cc3cccc([N+](=O)[O-])c3)ncnc12` [Compound 144] cannot be ordered by IC50: > 147 µM for the first, > 160 µM for the second.

`CCC=NNc1ncnc2c(C)csc12` [Compound 173, Propanal(7-methylthieno[3,2-d]pyrimidin-4-yl)hydrazone] and `CCCC=NNc1ncnc2c(C)csc12` [Compound 174, Butanal(7-methylthieno[3,2-d]pyrimidin-4-yl)hydrazone] cannot be ordered by IC50: > 227 µM for the first, > 213 µM for the second.

`CCCCC=NNc1ncnc2c(C)csc12` [Compound 175, Pentanal(7-methylthieno[3,2-d]pyrimidin-4-yl)hydrazone] and `CC=CC=NNc1ncnc2c(C)csc12` [Compound 182, E-2-Butenal(7-methylthieno[3,2-d]pyrimidin-4-yl)hydrazone] cannot be ordered by IC50: > 201 µM for the first, > 215 µM for the second.

`N#Cc1ccc(C=NNc2ncnc3c2sc2ncccc23)cc1` [Compound 248] and `Clc1ccc(-c2cc3ncnc(NN=Cc4cccnc4)c3s2)cc1` [Compound 308, 3-Pyridinecarboxaldehyde(6-(4-chlorophenyl)thieno[3,2-d]pyrimidin-4-yl)hydrazone] cannot be ordered by IC50: > 151 µM for the first, > 137 µM for the second.

`Cc1csc2c(NN=Cc3cccc(C(=O)O)c3)ncnc12` [Compound 249, 3-Carboxybenzaldehyde(7-methylthieno[3,2-d]pyrimidin-4-yl)hydrazone] and `Cc1c(I)sc2c(NN=Cc3cccs3)ncnc12` [Compound 374, 2-Thiophenecarboxaldehyde(6-iodo-7-methylthieno[3,2-d]pyrimidin-4-yl)hydrazone] cannot be ordered by IC50: > 160 µM for the first, > 125 µM for the second.

`C(=NNc1ncnc2cc(-c3ccccc3)sc12)c1cccs1` [Compound 253] and `Clc1cccc(-c2cc3ncnc(NN=Cc4cccs4)c3s2)c1` [Compound 306] cannot be ordered by IC50: > 149 µM for the first, > 135 µM for the second.

`Clc1cccc(-c2cc3ncnc(NN=Cc4cccnc4)c3s2)c1` [Compound 304, 3-Pyridinecarboxaldehyde(6-(3-chlorophenyl)thieno[3,2-d]pyrimidin-4-yl)hydrazone] and `Clc1ccc(-c2cc3ncnc(NN=Cc4cccs4)c3s2)cc1` [Compound 310] cannot be ordered by IC50: > 137 µM for the first, > 135 µM for the second.

`Ic1cc2ncnc(NN=Cc3cccs3)c2s1` [Compound 396, 2-Thiophenecarboxaldehyde(6-iodothieno[3,2-d]pyrimidin-4-yl)hydrazone] and `COc1ccc(-c2cc3ncnc(NN=Cc4cccs4)c3s2)cc1` [Compound 407, 2-Thiophenecarboxaldehyde(6-(4-methoxyphenyl)thieno[3,2-d]pyrimidin-4-yl)hydrazone] cannot be ordered by IC50: > 129 µM for the first, > 136 µM for the second.

`COc1ccc(-c2sc3c(NN=Cc4cccs4)ncnc3c2C)cc1` [Compound 424, 2-Thiophenecarboxaldehyde(6-(4-methoxyphenyl)-7-methylthieno[3,2-d]pyrimidin-4-yl)hydrazone] and `COc1ccc(C=NNc2ncnc3c(C)c(/C=C/c4ccccc4)sc23)cc1O` [Compound 450, 3-Hydroxy-4-methoxybenzaldehyde(7-methyl-6-(trans-2-phenylvinyl)-thieno[3,2-d]pyrimidin-4-yl)hydrazone] cannot be ordered by IC50: > 131 µM for the first, > 120 µM for the second.
